Assay results taken from patent publication US20260125374A1, “PI3K-ALPHA INHIBITORS AND METHODS OF MAKING AND USING THE SAME” (Relay Therapeutics, Inc., priority 2021, published 2026).
Values after ≈ are worked out from the molar mass of the structure shown.

How the values were obtained:
Assay type in all cases: physicochemical
Bulk stability (1 week) = test: Bulk stability (1 week); parameters: key to CL (color): A: No change of color; B: Slight discoloration; C: Medium discoloration; D: Strong discoloration; DC: complete decomposition; details: for CL (color) / Bulk (HPLC) chiral purity / Bulk (HPLC) purity / Bulk (XRPD): Solid state, 1 week
Experimental: Bulk stability of I-1 Form A and the 2 salt candidates was investigated at 25° C./92% RH in an open container, at 40° C./75% RH in an open container and at 60° C. in a tight container over 1 week. […] All the 3 salts show no obvious racemization based on chiral purity results.
I-1 Form A and the 2 salts were placed at 25° C./92% RH in an open container, at 40° C./75% RH in an open container and at 60° C. in a closed container for I week. Samples after I week were characterized by XRPD and HPLC and inspected for color change.

[1] = Suspension stability at 25° C.; details: for Solubility (μg/mL): LOQ: 0.25 μg/mL
Experimental: Suspension stability: Suspension stability of I-1 Form A and the 2 salt candidates was investigated in pure water, 0.5% (w/w) Tween 80 aqueous solution and 0.5% (w/w) MC (400 cP)+2% (w/w) Vitamin E TPGS aqueous solution at 25° C. for 2 h and 24 h. Target concentration was 2 mg/mL.
To confirm whether racemization occurs for the 2 salts in 0.5% (w/w) MC (400 cP)+2% (w/w) Vitamin E TPGS aqueous solution, the suspension stability in this vehicle was repeated at target concentration of 10 mg/mL. […] The hygroscopicity of these salts were further investigated.
Accurate 10 mg of I-1 Form A, 12.83 mg of I-3 Form A, 11.58 mg of I-4 Form A was weighed into a 8 mL glass vial, respectively. 5 mL of suspension vehicle was added, respectively. The salt amount used is equivalent to 10 mg anhydrous free form. These suspensions were stirred at 25° C. with 400 rpm. These suspensions were taken out at 2 hours and 24 hours, then centrifuged at 14,000 rpm for 5 min. The supernatants were analyzed by HPLC and pH meter. Solids obtained (wet cakes) were characterized by XRPD and HPLC to determine the chiral purity.
Accurate […] of I-3 Form A, 46.3 mg of I-4 Form A was weighed into a 8 mL glass vial, respectively. 4 mL of solubility medium was added, respectively. The salt amount used is equivalent to 40 mg anhydrous free form. 4 mL of the aqueous vehicle (0.5% (w/w) MC (400 cP) and 2% (w/w) Vitamin E TPGS in water) was added, respectively. These suspensions were stirred at 25° C. with 400 rpm. These suspensions were taken out at 2 hours and 24 hours, then centrifuged at 14,000 rpm for 5 min. The supernatants were analyzed by HPLC for the solubility and chiral purity and analyzed by pH meter. Solids obtained (wet cakes) were characterized by XRPD and HPLC for chiral purity.

[2] = Solubility study at 37° C. (buffer, water, bio-relevant media, MeOH/DCM)
Experimental: In addition, residual solids were checked by chiral HPLC to confirm whether racemization occurs.
Accurate 4 mg of I-1 Form A, 5.13 mg of I-3 Form A, 4.63 mg of I-4 Form A was weighed into a 8 mL glass vial, respectively. 2 mL of solubility medium was added. The salt amount used is equivalent to 4 mg anhydrous free form. Obtained suspensions/solutions were stirred at 37° C. at 400 rpm for 2 hours and 24 hours and then centrifuged at 37° C. at 14,000 rpm for 5 min. Supernatants were analyzed by UPLC and PH meter for solubility and pH value, respectively. Residual solids (wet cakes) were characterized by XRPD to determine physical form and then analyzed by HPLC for chiral purity.

[3] = Salt candidates risk matrix (summary)
[4] = 25° C./92% RH, open container, listed as I-1 Form A
[5] = 40° C./75% RH, open container, listed as I-1 Form A
[6] = 60° C., tight container, listed as I-1 Form A
[7] = before storage, listed as I-1 Form A
[8] = 25° C., 2 mg/mL, 0.5%(w/w) MC(400 cP) and 2%(w/w) Vitamin E TPGS in water, 2 h, listed as I-1 Form A
[9] = 25° C., 2 mg/mL, 0.5%(w/w) MC(400 cP) and 2%(w/w) Vitamin E TPGS in water, 24 h, listed as I-1 Form A
[10] = 25° C., 2 mg/mL, 0.5%(w/w) Tween 80 in water, 2 h, listed as I-1 Form A
[11] = 25° C., 2 mg/mL, 0.5%(w/w) Tween 80 in water, 24 h, listed as I-1 Form A
[12] = 25° C., 2 mg/mL, Pure water, 2 h, listed as I-1 Form A
[13] = 25° C., 2 mg/mL, Pure water, 24 h, listed as I-1 Form A
[14] = FaSSIF-V1, pH 6.5, 2 hours, listed as I-1 Form A
[15] = FaSSIF-V1, pH 6.5, 24 hours, listed as I-1 Form A
[16] = FeSSIF-V1, pH 5.0, 24 hours, listed as I-1 Form A
[17] = SGF, pH 2.0, 24 hours, listed as I-1 Form A
[18] = Water, 24 hours, listed as I-1 Form A
[19] = pH 2, HCl, 24 hours, listed as I-1 Form A

## N#Cc1c(-c2cc(NC(=O)c3cc(F)cc(C(F)(F)F)c3)c3c(c2)C(=O)N[C@H]3c2cc(F)ccc2Cl)ccc2ncnn12 [Compound I-1, (R)-N-(3-(2-chloro-5-fluorophenyl)-6-(5-cyano-[1,2,4]triazolo[1,5-a]pyridin-6-yl)-1-oxoisoindolin-4-yl)-3-fluoro-5-(trifluoromethyl)benzamide]
Bulk stability (1 week); [3]
  Chemical stability: Stable
  Physical stability: Stable
Bulk stability (1 week); 25° C./92% RH, open container
  CL (color): A
Bulk stability (1 week); [4]
  Bulk (HPLC) chiral purity: 98.9%
  Bulk (HPLC) purity: 99.0%/
  Bulk (XRPD): No form change
Bulk stability (1 week); 40° C./75% RH, open container
  CL (color): A
Bulk stability (1 week); [5]
  Bulk (HPLC) chiral purity: 98.9%
  Bulk (HPLC) purity: 99.0%/
  Bulk (XRPD): No form change
Bulk stability (1 week); 60° C., tight container
  Bulk (XRPD): No form change
  CL (color): A
Bulk stability (1 week); [6]
  Bulk (HPLC) chiral purity: 98.9%
  Bulk (HPLC) purity: 99.0%/
Bulk stability (1 week); [7]
  Chiral purity (initial): 99.0%
  Initial purity by HPLC: 99.0%
[1]; 3 vehicles, 25° C., 2 mg/mL
  physical stability in suspension (XRPD): physically stable
  racemization in suspension: no racemization
[1]; 25° C., 2 mg/mL, 0.5%(w/w) MC(400 cP) and 2%(w/w) Vitamin E TPGS in water, 2 h
  Chiral purity (solids): 98.7%
[1]; [8]
  Chiral purity: 64.8%
  Purity: 99.5%
  Solubility: 0.0479 mg/mL (≈ 78.7 µM)
  pH: 5.02
[1]; 25° C., 2 mg/mL, 0.5%(w/w) MC(400 cP) and 2%(w/w) Vitamin E TPGS in water, 24 h
  Chiral purity (solids): 96.6%
[1]; [9]
  Chiral purity: 97.7%
  Purity: 99.1%
  Solubility: 0.0345 mg/mL (≈ 56.7 µM)
  pH: 4.30
[1]; [10]
  Chiral purity: 83.2%
  Chiral purity (solids): 98.8%
  Purity: 99.1%
  Solubility: 0.0255 mg/mL (≈ 41.9 µM)
  pH: 6.52
[1]; [11]
  Chiral purity: 93.0%
  Chiral purity (solids): 97.6%
  Purity: 99.2%
  Solubility: 0.0176 mg/mL (≈ 28.9 µM)
  pH: 7.40
[1]; 25° C., 2 mg/mL, Pure water, 2 h
  Solubility (μg/mL): <LOQ
[1]; [12]
  Chiral purity (solids): 98.8%
  Purity: 99.1%
  pH: 6.79
[1]; 25° C., 2 mg/mL, Pure water, 24 h
  Solubility (μg/mL): <LOQ
[1]; [13]
  Chiral purity (solids): 96.7%
  Purity: 99.2%
  pH: 8.27
[1]; before suspension, listed as I-1 Form A
  Initial chiral purity: Initial chiral purity: 98.9%
[1]; water, 0.5% Tween 80, 0.5% MC (400 cP)+2% Vitamin E TPGS, 25° C., 2 h and 24 h, 2 mg/mL
  chemical stability in suspension: chemically stable
[2]; [14]
  Chiral purity: purity: 97.7%)
  Solubility: 4.5 μg/mL(chiral
[2]; FaSSIF-V1, pH 6.5, 24 hours
  Chiral purity: (chiral purity: 97.7%)
[2]; [15]
  Chiral purity (solids): 98.9%)
  Solubility: 11.9 µg/mL (≈ 19.5 µM)
  pH of supernatant: 6.45
[2]; FeSSIF-V1, pH 5.0, 2 hours, listed as I-1 Form A
  Solubility: 20.5 µg/mL (≈ 33.7 µM)
[2]; [16]
  Chiral purity (solids): 85.7%)
  Solubility: 40.6 µg/mL (≈ 66.7 µM)
  pH of supernatant: 4.87
[2]; MeOH/DCM (1:2, v/v), 37 °C, organic solvent or mixture, thermodynamic from solid, MeOH/DCM (1:2, v/v), 2 hours
  solubility at 2 h: > 145 mg/mL
[2]; MeOH/DCM (1:2, v/v), 37 °C, organic solvent or mixture, thermodynamic from solid, MeOH/DCM (1:2, v/v), 24 hours
  solubility at 24 h: > 145 mg/mL
[2]; MeOH/DCM (1:2, v/v), 37 °C, organic solvent or mixture, thermodynamic from solid, read-out: solubility in MeOH/DCM (1:2, v/v)
  Solubility: > 145000 µg/mL
[2]; SGF, pH 2.0, 2 hours, listed as I-1 Form A
  Solubility: 11.2 µg/mL (≈ 18.4 µM)
[2]; [17]
  Chiral purity (solids): 98.9%)
  Solubility: 6.4 µg/mL (≈ 10.5 µM)
  pH of supernatant: 2.04
[2]; Water, 2 hours, LOQ: 0.5 μg/mL
  Solubility: <LOQ
[2]; Water, 24 hours, LOQ: 0.5 μg/mL
  Solubility: LOQ
[2]; [18]
  Chiral purity (solids): 98.9%)
  pH of supernatant: 7.50
[2]; pH 2, HCl, 2 hours, LOQ: 0.5 μg/mL
  Solubility: <LOQ
[2]; pH 2, HCl, 24 hours, LOQ: 0.5 μg/mL
  Solubility: LOQ
[2]; [19]
  Chiral purity (solids): 98.9%)
  pH of supernatant: 2.03
[2]; pH 2.0 HCl buffer solution, 37 °C, pH 2, aqueous buffer, thermodynamic from solid, solubility in pH 2 HCl buffer solution, 2 h and 24 h, LOQ=0.5 μg/mL
  Solubility: < 0.5 µg/mL
[2]; water, 37 °C, water, thermodynamic from solid, 2 h and 24 h, LOQ=0.5 μg/mL, read-out: solubility in pure water
  Solubility: < 0.5 µg/mL
